# System: 922993-354-T-J3-PDC complex spheroids, viability, % test/control
# Assay: Anticancer human tumor 922993-354-T-J3-PDC patient-derived endometrial carcinoma cell line growth inhibition [CLK]
# Details: for IC50: curve of first compound; for viability, T/C: stronger effect = lower value
# How it was run: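 Patient-derived tumor cells grown as complex spheroids with HUVEC endothelial cells and mesenchymal stem cells, treated with drug combinations. Concentrations descend in half-log steps from near clinical Cmax, or from 10 microM if Cmax unknown.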
# [1] = second compound 0.0316 µM, first compound 0.0316 µM
# [2] = second compound 0.0316 µM, first compound 0.1 µM
# [3] = second compound 0.0316 µM, first compound 0.316 µM
# [4] = second compound 0.0316 µM, first compound 1 µM
# [5] = second compound 0.0316 µM, first compound 3.16 µM
# [6] = second compound 0.0316 µM, first compound 10 µM
# [7] = second compound 0.1 µM, first compound 0.0316 µM
# [8] = second compound 0.1 µM, first compound 0.1 µM
# [9] = second compound 0.1 µM, first compound 0.316 µM
# [10] = second compound 0.1 µM, first compound 1 µM
# [11] = second compound 0.1 µM, first compound 3.16 µM
# [12] = second compound 0.1 µM, first compound 10 µM
# [13] = second compound 0.316 µM, first compound 0.0316 µM
# [14] = second compound 0.316 µM, first compound 0.1 µM
# [15] = second compound 0.316 µM, first compound 0.316 µM
# [16] = second compound 0.316 µM, first compound 1 µM
# [17] = second compound 0.316 µM, first compound 3.16 µM
# [18] = second compound 0.316 µM, first compound 10 µM
# [19] = second compound 1 µM, first compound 0.0316 µM
# [20] = second compound 1 µM, first compound 0.1 µM
# [21] = second compound 1 µM, first compound 0.316 µM
# [22] = second compound 1 µM, first compound 1 µM
# [23] = second compound 1 µM, first compound 3.16 µM
# [24] = second compound 1 µM, first compound 10 µM
# [25] = second compound 3.16 µM, first compound 0.0316 µM
# [26] = second compound 3.16 µM, first compound 0.1 µM
# [27] = second compound 3.16 µM, first compound 0.316 µM
# [28] = second compound 3.16 µM, first compound 1 µM
# [29] = second compound 3.16 µM, first compound 3.16 µM
# [30] = second compound 3.16 µM, first compound 10 µM
# [31] = second compound 10 µM, first compound 0.0316 µM
# [32] = second compound 10 µM, first compound 0.1 µM
# [33] = second compound 10 µM, first compound 0.316 µM
# [34] = second compound 10 µM, first compound 1 µM
# [35] = second compound 10 µM, first compound 3.16 µM
# [36] = second compound 10 µM, first compound 10 µM
# 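Further: spheroids exposed to the agents for 7 days before readout.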
compound,measurement,setting,value
CC(=O)O[C@H]1C(=O)[C@@]2(C)[C@H]([C@H](OC(=O)c3ccccc3)[C@]3(O)C[C@H](OC(=O)[C@H](O)[C@@H](NC(=O)c4ccccc4)c4ccccc4)C(C)=C1C3(C)C)[C@]1(OC(C)=O)CO[C@@H]1C[C@@H]2O + CN1CCN(c2cc(C(=O)Nc3cc4cc(-c5cnn(C)c5)ccc4cn3)ccn2)CC1,IC50,second compound 0.0316 µM,2880 nM
same,IC50,second compound 0.1 µM,2370 nM
same,IC50,second compound 0.316 µM,< 31.6 nM
same,IC50,second compound 1 µM,< 31.6 nM
same,IC50,second compound 3.16 µM,< 31.6 nM
same,IC50,second compound 10 µM,< 31.6 nM
same,"viability, T/C",[1],110%
same,"viability, T/C",[2],126%
same,"viability, T/C",[3],91.4%
same,"viability, T/C",[4],95%
same,"viability, T/C",[5],43.5%
same,"viability, T/C",[6],36.3%
same,"viability, T/C",[7],94.8%
same,"viability, T/C",[8],100%
same,"viability, T/C",[9],98.3%
same,"viability, T/C",[10],63.1%
same,"viability, T/C",[11],50.1%
same,"viability, T/C",[12],30.3%
same,"viability, T/C",[13],26%
same,"viability, T/C",[14],24.9%
same,"viability, T/C",[15],29.8%
same,"viability, T/C",[16],19.9%
same,"viability, T/C",[17],16.1%
same,"viability, T/C",[18],14.4%
same,"viability, T/C",[19],0.1%
same,"viability, T/C",[20],0.47%
same,"viability, T/C",[21],0.12%
same,"viability, T/C",[22],0.07%
same,"viability, T/C",[23],0.06%
same,"viability, T/C",[24],0.07%
same,"viability, T/C",[25],0.1%
same,"viability, T/C",[26],0.79%
same,"viability, T/C",[27],0.18%
same,"viability, T/C",[28],0.67%
same,"viability, T/C",[29],0.76%
same,"viability, T/C",[30],0.11%
same,"viability, T/C",[31],0.12%
same,"viability, T/C",[32],0.14%
same,"viability, T/C",[33],0.2%
same,"viability, T/C",[34],0.16%
same,"viability, T/C",[35],1.02%
same,"viability, T/C",[36],2.94%
COc1ccc([C@@H](O)c2cc(-c3ncnc4cc(N5CCOCC5)ccc34)c(F)cc2Cl)nn1 + CN1CCN(c2cc(C(=O)Nc3cc4cc(-c5cnn(C)c5)ccc4cn3)ccn2)CC1,IC50,second compound 0.0316 µM,> 10000 nM
same,IC50,second compound 0.1 µM,> 10000 nM
same,IC50,second compound 0.316 µM,< 31.6 nM
same,IC50,second compound 1 µM,< 31.6 nM
same,IC50,second compound 3.16 µM,< 31.6 nM
same,IC50,second compound 10 µM,< 31.6 nM
same,"viability, T/C",[1],112%
same,"viability, T/C",[2],131%
same,"viability, T/C",[3],123%
same,"viability, T/C",[4],122%
same,"viability, T/C",[5],112%
same,"viability, T/C",[6],85.4%
same,"viability, T/C",[7],87.8%
same,"viability, T/C",[8],87.7%
same,"viability, T/C",[9],85.6%
same,"viability, T/C",[10],91.5%
same,"viability, T/C",[11],90.2%
same,"viability, T/C",[12],76.1%
same,"viability, T/C",[13],35.9%
same,"viability, T/C",[14],33.1%
same,"viability, T/C",[15],30.8%
same,"viability, T/C",[16],25.4%
same,"viability, T/C",[17],24.9%
same,"viability, T/C",[18],24.7%
same,"viability, T/C",[19],0.11%
same,"viability, T/C",[20],0.13%
same,"viability, T/C",[21],0.13%
same,"viability, T/C",[22],0.11%
same,"viability, T/C",[23],0.22%
same,"viability, T/C",[24],1.37%
same,"viability, T/C",[25],0.13%
same,"viability, T/C",[26],0.14%
same,"viability, T/C",[27],1.21%
same,"viability, T/C",[28],1.06%
same,"viability, T/C",[29],2.69%
same,"viability, T/C",[30],1.48%
same,"viability, T/C",[31],0.14%
same,"viability, T/C",[32],2.05%
same,"viability, T/C",[33],1.47%
same,"viability, T/C",[34],0.25%
same,"viability, T/C",[35],1.52%
same,"viability, T/C",[36],2.52%
COc1cccc2c1C(=O)c1c(O)c3c(c(O)c1C2=O)CC(O)(C(=O)CO)CC3OC1CC(N)C(O)C(C)O1 (stereo not given) + CN1CCN(c2cc(C(=O)Nc3cc4cc(-c5cnn(C)c5)ccc4cn3)ccn2)CC1,IC50,second compound 0.0316 µM,2210 nM
same,IC50,second compound 0.1 µM,1840 nM
same,IC50,second compound 0.316 µM,< 31.6 nM
same,IC50,second compound 1 µM,< 31.6 nM
same,IC50,second compound 3.16 µM,< 31.6 nM
same,IC50,second compound 10 µM,< 31.6 nM
same,"viability, T/C",[1],108%
same,"viability, T/C",[2],119%
same,"viability, T/C",[3],93.7%
same,"viability, T/C",[4],66.1%
same,"viability, T/C",[5],45.2%
same,"viability, T/C",[6],15.5%
same,"viability, T/C",[7],123%
same,"viability, T/C",[8],109%
same,"viability, T/C",[9],83.3%
same,"viability, T/C",[10],65%
same,"viability, T/C",[11],37.8%
same,"viability, T/C",[12],17.4%
same,"viability, T/C",[13],31%
same,"viability, T/C",[14],38%
same,"viability, T/C",[15],32.9%
same,"viability, T/C",[16],26.4%
same,"viability, T/C",[17],13.3%
same,"viability, T/C",[18],11.1%
same,"viability, T/C",[19],0.14%
same,"viability, T/C",[20],1.85%
same,"viability, T/C",[21],0.14%
same,"viability, T/C",[22],0.11%
same,"viability, T/C",[23],0.09%
same,"viability, T/C",[24],1.32%
same,"viability, T/C",[25],0.12%
same,"viability, T/C",[26],0.2%
same,"viability, T/C",[27],0.67%
same,"viability, T/C",[28],0.09%
same,"viability, T/C",[29],1.78%
same,"viability, T/C",[30],1.28%
same,"viability, T/C",[31],0.16%
same,"viability, T/C",[32],0.15%
same,"viability, T/C",[33],0.16%
same,"viability, T/C",[34],0.15%
same,"viability, T/C",[35],1.57%
same,"viability, T/C",[36],1.56%
CCCS(=O)(=O)Nc1ccc(F)c(C(=O)c2c[nH]c3ncc(-c4ccc(Cl)cc4)cc23)c1F + CNC(=O)c1ccc(Nc2nc(OC3CCCC3)c3c(-c4ccc5nc(C)oc5c4)c[nH]c3n2)c(OC)c1,IC50,second compound 0.0316 µM,> 10000 nM
same,IC50,second compound 0.1 µM,> 10000 nM
same,IC50,second compound 0.316 µM,650 nM
same,IC50,second compound 1 µM,< 31.6 nM
same,IC50,second compound 3.16 µM,< 31.6 nM
same,IC50,second compound 10 µM,< 31.6 nM
same,"viability, T/C",[1],96.5%
same,"viability, T/C",[2],93.9%
same,"viability, T/C",[3],109%
same,"viability, T/C",[4],103%
same,"viability, T/C",[5],90.9%
same,"viability, T/C",[6],74.4%
same,"viability, T/C",[7],110%
same,"viability, T/C",[8],103%
same,"viability, T/C",[9],109%
same,"viability, T/C",[10],113%
same,"viability, T/C",[11],85.2%
same,"viability, T/C",[12],67.6%
same,"viability, T/C",[13],70.8%
same,"viability, T/C",[14],73.4%
same,"viability, T/C",[15],57.9%
same,"viability, T/C",[16],46.5%
same,"viability, T/C",[17],49.1%
same,"viability, T/C",[18],40.2%
same,"viability, T/C",[19],40.2%
same,"viability, T/C",[20],32.9%
same,"viability, T/C",[21],32.8%
same,"viability, T/C",[22],35.4%
same,"viability, T/C",[23],31.8%
same,"viability, T/C",[24],24.3%
same,"viability, T/C",[25],32%
same,"viability, T/C",[26],31.3%
same,"viability, T/C",[27],30.3%
same,"viability, T/C",[28],30.2%
same,"viability, T/C",[29],27.7%
same,"viability, T/C",[30],24%
same,"viability, T/C",[31],30.3%
same,"viability, T/C",[32],31.7%
same,"viability, T/C",[33],27.4%
same,"viability, T/C",[34],29.6%
same,"viability, T/C",[35],26.7%
same,"viability, T/C",[36],23.1%
COC1C=CCC(C)C(C)S(=O)(=O)NC(=O)c2ccc3c(c2)N(CC2CCC21)CC1(CCCc2cc(Cl)ccc21)CO3 (stereo not given) + CNC(=O)c1ccc(Nc2nc(OC3CCCC3)c3c(-c4ccc5nc(C)oc5c4)c[nH]c3n2)c(OC)c1,IC50,second compound 0.0316 µM,6370 nM
same,IC50,second compound 0.1 µM,6790 nM
same,IC50,second compound 0.316 µM,2250 nM
same,IC50,second compound 1 µM,< 31.6 nM
same,IC50,second compound 3.16 µM,< 31.6 nM
same,IC50,second compound 10 µM,< 31.6 nM
same,"viability, T/C",[1],111%
same,"viability, T/C",[2],117%
same,"viability, T/C",[3],104%
same,"viability, T/C",[4],98.9%
same,"viability, T/C",[5],90.4%
same,"viability, T/C",[6],25.6%
same,"viability, T/C",[7],114%
same,"viability, T/C",[8],99.6%
same,"viability, T/C",[9],107%
same,"viability, T/C",[10],105%
same,"viability, T/C",[11],103%
same,"viability, T/C",[12],23%
same,"viability, T/C",[13],64.6%
same,"viability, T/C",[14],70.2%
same,"viability, T/C",[15],66.1%
same,"viability, T/C",[16],57%
same,"viability, T/C",[17],47.5%
same,"viability, T/C",[18],17.9%
same,"viability, T/C",[19],33.7%
same,"viability, T/C",[20],39%
same,"viability, T/C",[21],32.1%
same,"viability, T/C",[22],27.7%
same,"viability, T/C",[23],21.2%
same,"viability, T/C",[24],11%
same,"viability, T/C",[25],27.3%
same,"viability, T/C",[26],30.2%
same,"viability, T/C",[27],25.7%
same,"viability, T/C",[28],20.8%
same,"viability, T/C",[29],16.5%
same,"viability, T/C",[30],9.29%
same,"viability, T/C",[31],29.8%
same,"viability, T/C",[32],25.2%
same,"viability, T/C",[33],23.3%
same,"viability, T/C",[34],17.3%
same,"viability, T/C",[35],13.4%
same,"viability, T/C",[36],10.7%

# From PubChem BioAssay AID2060606 (Molecular Pharmacology Branch, DTP, NCI, 2025)
